Legend:
MC4 receptor = MC4 receptor (Homo sapiens, UniProt P32245); experiment: MC4 functional agonist potency (EC50), assay protocol E of US2005/0176772 / WO 2005/077935; format: cell-based; conditions: functional potency at the MC4 receptor
Method: The compounds of formula (I) of the present invention have utility as MCR4 agonists in the treatment of various disease states.
MC5 and MC4 EC50 activity was determined as described by assay protocols D and E, respectively, in US2005/0176772 (pages 28-30).

human MC3 receptor = biological target: T1, human MC3 receptor (Homo sapiens, UniProt P41968); experiment: In vitro agonist potency (EC50) against melanocortin receptor type 3, cAMP in recombinant cell line; format: cell-based; conditions: cell line stably transfected with human MC3, 1 hour at 37° C.
T1 construct: stably transfected with full length cDNA encoding human MC1 or MC3 receptors; expressed in transfected cells; host or cells: Chinese hamster ovary cell line (MC3; 'respectively')
Method: Measurement of In Vitro Agonist Potency (EC50) of Compounds Against Melanocortin Receptors Type 1 and 3 (MC1 and MC3).
Activation of melanocortin (MC) receptors by agonists results in activation of intracellular adenylate cyclase enzymes that synthesise the second messenger signalling molecule, adenosine 3′,5′-cyclic monophosphate (cAMP). Changes in cAMP levels following treatment of recombinant MC1 and MC3 cell lines with test compound were measured and an MC1 and MC3 potency estimate (EC50) calculated as follows: […]
Human embryonic kidney (HEK) or Chinese hamster ovary cell lines stably transfected with full length cDNA encoding human MC1 or MC3 receptors, respectively, were established using standard molecular biology methods. Test compounds were dissolved in dimethyl sulfoxide (DMSO) at 4 mM. 11 point half log unit increment dilution series of test compound, typically starting at 50 uM were prepared in a buffer comprised of phosphate buffered saline (PBS), 2.5% DMSO and 0.05% pluronic F-127 surfactant. Freshly cultured cells at 80-90% confluence were harvested and re-suspended in Dulbecco's Modified Eagle's Medium (DMEM). Cells (10,000 for MC3, 20,000 for MC1) were added to the test compound dilution series in a 384 well assay plate and incubated for 1 hour at 37° C. The relative cAMP concentration in each well was then measured using a β-galactosidase enzyme fragment complementation method purchased in kit form as the Discoverx cAMP II kit from GE Healthcare/Amersham Biosciences UK. In the case of MC1,3-Isobutyl-1-methylxanthine (IBMX) at a concentration of 750 μM was included in DMEM as the cells were re-suspended for assay. […] Sigmoidal curves were fitted to plots of log10 inhibitor concentration vs percent effect using a custom made software application called SIGHTS and EC50 estimates determined by the software as the concentration of test compound giving an effect half way between the bottom and top assymptopes of the sigmoidal dose response curve. Each experiment included an EC50 determination for alpha melanocyte stimulating hormone, which was used as a standard to track assay consistency and allow fair comparison between EC50 estimates obtained in different experiments.

[1] = In vitro metabolism rate determination, human liver microsome (HLM) assay; format: in vitro ADME; conditions: human liver microsomes, substrate 1 μM; read-out: HLM (intrinsic clearance)
Excerpt: In vitro Metabolism Rate Determination (Human Liver Microsome (HLM); Rat Liver Microsome (RLM) Assay)
Many drugs are metabolised by the cytochrome P450 mono-oxygenase system. This enzyme is found in high concentrations in the liver and is bound to the endoplasmic reticulum of the hepatocyte. The enzyme system can be obtained in semi-purified state by the preparation of the hepatic microsomal fractions. Determining a compound's in vitro half-life in such a system provides a useful indicator of metabolic stability.
Methodology For In Vitro Rate Determination Using Hepatic & Supermix Microsomes
The method outlined below is for a total incubation volume of 1.5 ml.
1. The following mixture is prepared in a test tube:
2. Defrost microsomes at room temperature and add sufficient microsomes to give a final concentration of 0.5 nmol cytochrome P450/ml of incubation e.g. for a 1.5 ml incubation, the volume of microsomes to be added is:
[formula] 3. Add sufficient MilliQ water to give a total incubation volume of 1.425 ml. 4. Remove 237.5 μl of incubation mix and place in test tube for PNA positive control. Add 2.5 μl of PNA solution, whirlimix, and put tube into a rack in the thermostatically controlled shaking water bath 5. Remove 100 μl for no substrate control and dispense in test tube. Place test tube in a rack in the thermostatically controlled shaking water bath. 6. Add substrate to the incubation. The substrate should be at an initial concentration of 1 μM. The volume of substrate required in the remaining 1.162.5 ml incubation is calculated as follows:
[formula] • N.B. The volume of organic solvent added should not exceed 0.1% of the total incubation volume. 7. Remove 100 μl of incubation mix into test tube for no cofactor control. Whirlimix and put into a rack in the thermostatically controlled shaking water bath. 8. Pre-incubate the tube containing the incubation mix, also positive control and no cofactor tubes in the thermostatically controlled shaking water bath set at 37° C. for approx 5 min. 9. Add NADP to initiate reaction (75 μl to each 1.162.5 ml incubation mix, 12.5 μl to positive control tube and 5 μl to no substrate tube) and take first time point immediately. The PNA positive control, no cofactor control and no substrate tubes are incubated for the total incubation time. 10. Remove 100 μl aliquots up to 9 different sampling points from 0 to 60 min (usually 0, 3, 5, 10, 15, 20, 30, 45 & 60 min) and terminate reaction. Longer incubation times can be used, but, after 120 min the microsomes deteriorate. The reaction may be terminated by addition of organic solvent, acid or base. At the end of the incubation process the no cofactor and no substrate controls in a similar manner i.e. terminate with the same reagent. 11. PNA Positive Control Procedure: • After the final sample has been taken, remove the positive control and add 1 ml 20% TCA to this tube. Also prepare a tube containing 250 μl of a PNP standard at 50 μM, and add 1 ml 20% TCA. Whirlimix both tubes and leave for approx 5 min to allow the protein to precipitate. • Centrifuge both tubes for approx 5 min in an instrument set at 3500 rpm. Remove 1 ml of supernatant and place into clean test tubes, discard the remainder. • Add 1 ml 10M NaOH to the supernatant, whirlimix, and leave to stand for approx min. Blank spectrophotometer with distilled water at 400 nm then measure absorbance of the PNP standard against distilled water. The microsomal 4-nitroanisole O-demethylase activity is calculated as follows: Calculation of Results
[formula] • The activity value from the incubation MUST be equal to or greater than 85% of the mean value of the batch used for the incubation to be valid. If this criteria is not met, then the incubation must be repeated. 11. Analyse samples (including no cofactor and no substrate control) by a specific assay for the substrate to determine the disappearance kinetics. Analysis Of Data […]

T1 sequence (P41968 whole entry): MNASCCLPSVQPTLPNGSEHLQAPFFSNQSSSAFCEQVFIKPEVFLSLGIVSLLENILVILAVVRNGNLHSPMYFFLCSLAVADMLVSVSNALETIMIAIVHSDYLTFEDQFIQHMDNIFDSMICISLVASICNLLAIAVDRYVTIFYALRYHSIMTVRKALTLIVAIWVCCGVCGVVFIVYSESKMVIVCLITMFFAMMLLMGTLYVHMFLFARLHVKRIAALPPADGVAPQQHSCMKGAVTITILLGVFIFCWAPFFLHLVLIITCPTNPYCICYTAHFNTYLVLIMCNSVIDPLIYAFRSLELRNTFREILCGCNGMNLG
Sequence of MC4 receptor (P32245 whole entry): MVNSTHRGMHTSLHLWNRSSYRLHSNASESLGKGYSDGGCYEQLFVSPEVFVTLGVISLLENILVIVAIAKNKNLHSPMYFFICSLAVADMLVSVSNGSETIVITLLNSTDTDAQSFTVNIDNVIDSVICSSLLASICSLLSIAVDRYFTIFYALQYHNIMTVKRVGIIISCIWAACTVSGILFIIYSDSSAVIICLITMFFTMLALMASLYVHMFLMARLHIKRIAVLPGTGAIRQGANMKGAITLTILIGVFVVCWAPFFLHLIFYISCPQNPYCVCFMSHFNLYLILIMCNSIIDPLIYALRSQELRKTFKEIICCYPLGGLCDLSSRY

SMILES | EC50 (MC4 receptor) | EC50 (human MC3 receptor) | microsomal CLint at 1 μM [1]
C[C@@H]1CN(C(=O)[C@@H]2CN(c3ccc(=O)[nH]n3)C[C@H]2c2ccc(Cl)cn2)C[C@H](C)[C@@]1(O)c1ccccn1 [Example 28] | 24.4 nM | 938 nM | 33 µL/min/mg
CC1CN(C(=O)C2CN(c3ccc(C#N)nn3)CC2c2ccc(F)cn2)CC(C)C1(O)c1ccccc1 (stereo not shown) [Example 33] | 13.4 nM | 193 nM | 186 µL/min/mg
CC1CN(C(=O)C2CN(c3ccc(=O)[nH]n3)CC2c2ccc(F)cn2)CC(C)C1(O)c1ccccc1 (stereo not shown) [Example 37] | – | 325 nM | 19.5 µL/min/mg
CC1CN(C(=O)C2CN(c3cncc(F)c3)CC2c2ccc(Cl)cn2)CC(C)C1(O)C1CC1 (stereo not shown) [Example 24] | 59.3 nM | 2510 nM | 355 µL/min/mg
CC1CN(C(=O)C2CN(c3ccc(=O)n(C)n3)CC2c2ccc(F)cn2)CC(C)C1(O)c1ccc(F)cc1 (stereo not shown) [Example 40] | 69.8 nM | 580 nM | < 7 µL/min/mg
C[C@@H]1CN(C(=O)[C@@H]2CN(c3ccc(Cl)nn3)C[C@H]2c2ccc(F)cn2)C[C@H](C)[C@@]1(O)c1ccccc1 [Example 35] | 62.2 nM | 878 nM | 100 µL/min/mg
C[C@@H]1CN(C(=O)[C@@H]2CN(c3ccc(=O)[nH]n3)C[C@H]2c2ccc(F)cn2)C[C@H](C)[C@@]1(O)c1ccc(Cl)cc1 [Example 6, 6-[(3S,4S)-3-{[(3R,4R,5S)-4-(4-chlorophenyl)-4-hydroxy-3,5-dimethylpiperidin-1-yl]carbonyl}-4-(5-fluoropyridin-2-yl)pyrrolidin-1-yl]pyridazin-3(2H)-one] | 18.9 nM | 1460 nM | –
C[C@@H]1CN(C(=O)[C@@H]2CN(c3ccc(Cl)nn3)C[C@H]2c2ccc(F)cn2)C[C@H](C)[C@@]1(O)c1ccc(Cl)cc1 [Example 5, (3R,4R,5S)-4-(4-chlorophenyl)-1-{[(3S,4S)-1-(6-chloropyridazin-3-yl)-4-(5-fluoropyridin-2-yl)pyrrolidin-3-yl]carbonyl}-3,5-dimethylpiperidin-4-ol] | 137 nM | 203 nM | < 7 µL/min/mg
C[C@@H]1CN(C(=O)[C@@H]2CN(c3cccnn3)C[C@H]2c2ccc(Cl)cn2)C[C@H](C)[C@@]1(O)c1ccccn1 [Example 9, (3R,4R,5S)-1-{[(3S,4S)-4-(5-chloropyridin-2-yl)-1-pyridazin-3-ylpyrrolidin-3-yl]carbonyl}-3,5-dimethyl-4-pyridin-2-ylpiperidin-4-ol] | 39.3 nM | 520 nM | 240 µL/min/mg
C[C@@H]1CN(C(=O)[C@@H]2CN(c3ccc(=O)n(C)n3)C[C@H]2c2ccc(F)cn2)C[C@H](C)[C@@]1(O)c1ccc(Cl)cc1 [Example 7, 6-[(3S,4S)-3-{[(3R,4R,5S)-4-(4-chlorophenyl)-4-hydroxy-3,5-dimethylpiperidin-1-yl]carbonyl}-4-(5-fluoropyridin-2-yl)pyrrolidin-1-yl]-2-methylpyridazin-3(2H)-one] | 40 nM | 1600 nM | 21 µL/min/mg
C[C@@H]1CN(C(=O)[C@@H]2CN(c3ccc(C#N)nn3)C[C@H]2c2ccc(C#N)cn2)C[C@H](C)[C@@]1(O)c1ccc(F)cc1 [Example 46] | 15 nM | 50.8 nM | < 7 µL/min/mg
CC1CN(C(=O)C2CN(c3ccc(=O)n(C)n3)CC2c2ccc(Cl)cn2)CC(C)C1(O)c1ccc(Cl)cc1 (stereo not shown) [Example 23] | 4.75 nM | 185 nM | < 15.5 µL/min/mg
C[C@@H]1CN(C(=O)[C@@H]2CN(c3ccc(C#N)cn3)C[C@H]2c2ccc(Cl)cn2)C[C@H](C)[C@@]1(O)c1ccc(F)cc1 [Example 1, 6-[(3S,4S)-3-(5-Chloropyridin-2-yl)-4-{[(3R,4R,5S)-4-(4-fluorophenyl)-4-hydroxy-3,5-dimethylpiperidin-1-yl]carbonyl}pyrrolidin-1-yl]nicotinonitrile] | < 0.52 nM | 43.9 nM | < 7 µL/min/mg
COc1ccc(N2CC(C(=O)N3CC(C)C(O)(C4CC4)C(C)C3)C(c3ccc(Cl)cn3)C2)nn1 (stereo not shown) [Example 26] | 22.5 nM | 4210 nM | 70 µL/min/mg
C[C@@H]1CN(C(=O)[C@@H]2CN(c3ccc(C#N)nn3)C[C@H]2c2ccc(F)cn2)C[C@H](C)[C@@]1(O)c1ccc(Cl)cc1 [Example 32] | 8.78 nM | 76.6 nM | 8 µL/min/mg
C[C@@H]1CN(C(=O)[C@@H]2CN(c3ccc(C#N)nn3)C[C@H]2c2ccc(Cl)cn2)C[C@H](C)[C@@]1(O)c1ccc(F)cc1 [Example 2, 6-[(3S,4S)-3-(5-Chloropyridin-2-yl)-4-{[(3R,4R,5S)-4-(4-fluorophenyl)-4-hydroxy-3,5-dimethylpiperidin-1-yl]carbonyl}pyrrolidin-1-yl]pyridazine-3-carbonitrile] | 4.53 nM | 4.26 nM | < 12 µL/min/mg
COc1ccc(N2C[C@@H](C(=O)N3C[C@@H](C)[C@](O)(c4ccc(F)cc4)[C@@H](C)C3)[C@H](c3ccc(Cl)cn3)C2)nn1 [Example 4, (3R,4R,5S)-1-{[(3S,4S)-4-(5-chloropyridin-2-yl)-1-(6-methoxypyridazin-3-yl)pyrrolidin-3-yl]carbonyl}-4-(4-fluorophenyl)-3,5-dimethylpiperidin-4-ol] | – | 55.9 nM | 60 µL/min/mg
COc1ccc([C@@H]2CN(c3ccc(C#N)nn3)C[C@H]2C(=O)N2C[C@@H](C)[C@](O)(c3ccc(F)cc3)[C@@H](C)C2)nc1 [Example 43] | 49.3 nM | 1590 nM | 37 µL/min/mg
COc1ccc(C2CN(c3ccc(=O)[nH]n3)CC2C(=O)N2CC(C)C(O)(c3ccc(F)cc3)C(C)C2)nc1 (stereo not shown) [Example 42] | – | > 20300 nM | 25 µL/min/mg
CC1CN(C(=O)C2CN(c3ccc(=O)n(C)n3)CC2c2ccc(F)cn2)CC(C)C1(O)c1ccccc1 (stereo not shown) [Example 39] | – | 2100 nM | 95 µL/min/mg
